Data from patent publication US20120020915A1, “Compounds and Methods for Treating Cancer and Diseases of the Central Nervous System” (QUEENS UNIVERSITY AT KINGSTON, priority 2007, published 2012).

What was measured:
[1] = tested on: HCT-116 colorectal carcinoma; test: Colorectal carcinoma model HCT-116 in SCID mice, tumor growth delay; type: in vivo, Mouse (Mus musculus); male SCID; settings: dosage of 60 mg/kg
Excerpt: (§1) Control groups received the vehicle alone.

[2] = tested on: B16-BL6 cells (mouse melanoma); test: Metastatic B16-BL6 melanoma model, lung surface metastases; type: in vivo; settings: vehicle control: 101
Experimental: B16-BL6 cells (mouse melanoma). B16-BL6 metastatic variant was derived from B16-F10. This cell variant was obtained from Dr. Linda D. Williams, Dept. of Cancer Biology, MD Anderson Cancer Center, Texas, USA. […] Cells were maintained at 37° C. in a humidified atmosphere (5% CO2, 95% air).
as §1

cultured rat astroglia = settings: cited from earlier work; for mitochondrial iron accumulation in astroglia transfected with human ho-1 gene: transient transfection
[3] = tested on: CD31-positive vessels in SKMEL-V+ tumors; test: CD31 immunohistochemistry / microvessel density of SKMEL-V+ tumors; type: in vivo, Mouse (Mus musculus), male SCID; settings: QC-56 particularly at 60 mg/kg
Experimental: Cell cultures were maintained in 5% CO2/95% air at 37° C. SKMEL-V (human melanoma cells). SKMEL-V cells were derived from SKMEL-24 cells (ATCC) by overexpression of mouse VEGF. […] Tumors were either snap frozen in liquid nitrogen or fixed in 10% buffered formalin and embedded in paraffin. […] BD PharMingen, San Diego, Calif.). […] Sections were rehydrated in PBS and then blocked with 5% normal goat serum for 1 h. The sections were then incubated overnight at 4° C. with CD31 antibody diluted 1:25 in 3% BSA-PBS. […] Paraffin-embedded material was used for Harris' hematoxylin. Microvessel density was quantified using a method described by Weidner et al ([…], and Folkman […]. Med, 1991; 324:1-8). Briefly, randomly vascularized areas were selected (hot spots) under 40× field and 100× fields. Then a 400× field was used to count microvessels in each of these areas. Single endothelial cells or clusters of endothelial cells with or without lumen were considered to be individual vessels. […] All slides were examined blindly with no prior knowledge of the treatment status.

HO-1 (rat spleen) = target: T1, HO-1 (rat spleen) (Rattus norvegicus, UniProt P06762); test: HO enzymatic activity, rat spleen microsomal fraction (CO formation from methemalbumin); type: biochemical; settings: CO formation from methemalbumin, mean ± SD of replicate experiments, read-out: IC50 HO-1 (rat spleen/μM)
T1 construct: Spleen microsomes were used as a source of HO-1; from tissue; host or cells: spleen microsomal fraction of adult male Sprague-Dawley rats
T1 sequence (P06762 1-289): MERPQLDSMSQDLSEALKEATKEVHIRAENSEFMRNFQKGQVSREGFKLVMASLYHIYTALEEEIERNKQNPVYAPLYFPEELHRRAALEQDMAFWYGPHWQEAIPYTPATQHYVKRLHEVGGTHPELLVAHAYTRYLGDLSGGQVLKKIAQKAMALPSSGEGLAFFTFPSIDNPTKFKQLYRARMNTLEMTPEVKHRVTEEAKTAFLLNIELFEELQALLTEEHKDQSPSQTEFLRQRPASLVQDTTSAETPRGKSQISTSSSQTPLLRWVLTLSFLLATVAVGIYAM

HO-2 (rat brain) = target: T2, HO-2 (rat brain) (Rattus norvegicus, UniProt P23711); test: HO enzymatic activity, rat brain microsomal fraction (CO formation from methemalbumin); type: biochemical; settings: IC50 HO-2 (rat brain)/μM), CO formation from methemalbumin, mean ± SD of replicate experiments
T2 construct: brain microsomes were used as a source of HO-2; from tissue; host or cells: brain microsomal fraction of adult male Sprague-Dawley rats
T2 sequence (P23711 1-315): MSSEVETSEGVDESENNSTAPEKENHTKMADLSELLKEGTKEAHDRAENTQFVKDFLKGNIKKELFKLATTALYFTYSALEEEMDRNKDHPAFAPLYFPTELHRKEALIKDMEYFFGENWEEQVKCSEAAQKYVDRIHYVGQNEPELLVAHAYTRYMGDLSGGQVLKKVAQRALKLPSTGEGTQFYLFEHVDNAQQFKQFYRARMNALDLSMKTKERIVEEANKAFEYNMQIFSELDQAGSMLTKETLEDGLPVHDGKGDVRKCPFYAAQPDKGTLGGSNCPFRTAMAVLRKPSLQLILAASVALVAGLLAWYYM

[4] = type: in vivo; settings: QC-56 60 mg/kg ip, 4 cycles; chemotherapy drugs ip
Excerpt: as §1

[5] = tested on: vascular smooth muscle cells (VSMC); settings: exposure of VSMC; cited from earlier work

O=c1[nH]cc(F)c(=O)[nH]1 [5-FU, Fluorouracil, reference compound]
mortality [1]: induced mortality

N.N.[Cl][Pt][Cl] [cisplatin, cis-diaminedichloroplatinum(II), reference compound]
macroscopic nodules in the lungs (average) [2]: 60 nodules

C[C@@H]1C[C@H]2[C@@H]3CCC4=CC(=O)C=C[C@]4(C)[C@@]3(F)[C@@H](O)C[C@]2(C)[C@@]1(O)C(=O)CO [dexamethasone]
mitochondrial iron sequestration in astrocytes exposed to β-amyloid, TNFα or IL-1β (cultured rat astroglia; dexamethasone 50 μg/mL): significantly attenuated mitochondrial iron sequestration
mitochondrial iron accumulation in astroglia transfected with human ho-1 gene (cultured rat astroglia): abolished the pathological accumulation of mitochondrial ^55Fe

CN(C)/N=N/c1[nH]cnc1C(N)=O [Dacarbazine, reference compound]
vessel count / tumor vascularization (CD31) [3]: minor effect

Cl.OC(CCc1ccc(Br)cc1)Cn1ccnc1 (racemic) [QC-79, (±)-4-(4-Bromophenyl)-1-(1H-imidazol-1-yl)-2-butanol hydrochloride]
IC50 (HO-1 (rat spleen)): 0.1 ± 0.1 µM
IC50 (HO-2 (rat brain)): 2.6 ± 0.5 µM
melting point: 174 to 175 °C

CC(=O)O[C@H]1C(=O)[C@@]2(C)[C@H]([C@H](OC(=O)c3ccccc3)[C@]3(O)C[C@H](OC(=O)[C@H](O)[C@@H](NC(=O)c4ccccc4)c4ccccc4)C(C)=C1C3(C)C)[C@]1(OC(C)=O)CO[C@@H]1C[C@@H]2O [Taxol™, paclitaxel, reference compound]
toxicity in the combination study [4]: induced some loss of body weights/mortality
HO-1 expression and activity [5]: dose and time dependent increase in HO-1 expression and activity

CCC1=C(C)c2cc3[n-]c(cc4[n-]c(cc5nc(cc1n2)C(C)=C5CC)c(C)c4CCC(=O)O)c(CCC(=O)O)c3C.[Cl-].[Cl-].[Sn+4] [SnMP]
mitochondrial iron accumulation in astroglia transfected with human ho-1 gene (cultured rat astroglia): abolished the pathological accumulation of mitochondrial ^55Fe
